Test results: US12404232B2, “Compounds and compositions for intracellular delivery of therapeutic agents” (ModernaTX, Inc., priority 2015, dated 2025)

Experiments:
[1] = Particle size and polydispersity index of nanoparticle compositions (Zetasizer Nano ZS); format: physicochemical; settings: for PDI: nanoparticle composition 50:10:38.5:1.5 mol % (Table 1A)
Outline: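 Particle size and PDI by Zetasizer Nano ZS dynamic light scattering in 1×PBS. Lipid nanoparticles carried mRNA (luciferase or hEPO) with ionizable lipid:DSPC:cholesterol:PEG-DMG at 50:10:38.5:1.5 mol %.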

[2] = Encapsulation of RNA by the nanoparticle composition (QUANT-IT RIBOGREEN RNA assay); format: physicochemical
From the text: The efficiency of encapsulation of a therapeutic and/or prophylactic describes the amount of therapeutic and/or prophylactic that is encapsulated or otherwise associated with a nanoparticle composition after preparation, relative to the initial amount provided. The encapsulation efficiency is desirably high (e.g., close to 100%). The encapsulation efficiency may be measured, for example, by comparing the amount of therapeutic and/or prophylactic in a solution containing the nanoparticle composition before and after breaking up the nanoparticle composition with one or more organic solvents or detergents. Fluorescence may be used to measure the amount of free therapeutic and/or prophylactic (e.g., RNA) in a solution. For the nanoparticle compositions described herein, the encapsulation efficiency of a therapeutic and/or prophylactic may be at least 50%, for example 50%, 55%, 60%, 65%, 70%, 75%, 80%, 85%, 90%, 91%, 92%, 93%, 94%, 95%, 96%, 97%, 98%, 99%, or 100%. In some embodiments, the encapsulation efficiency may be at least 80%. In certain embodiments, the encapsulation efficiency may be at least 90%.
For nanoparticle compositions including an RNA, a QUANT-IT™ RIBOGREEN® RNA assay (Invitrogen Corporation Carlsbad, CA) can be used to evaluate the encapsulation of an RNA by the nanoparticle composition. The samples are diluted to a concentration of approximately […] in a TE buffer solution (10 mM Tris-HCl, 1 mM EDTA, pH 7.5). 50 μL of the diluted samples are transferred to a polystyrene 96 well plate and either 50 μL of TE buffer or 50 μL of a 2% Triton X-100 solution is added to the wells. The plate is incubated at a temperature of 37° C. for 15 minutes. The RIBOGREEN® reagent is diluted 1:100 in TE buffer, and 100 μL of this solution is added to each well. The fluorescence intensity can be measured using a fluorescence plate reader (Wallac Victor 1420 Multilablel Counter; Perkin Elmer, Waltham, MA) at an excitation wavelength of, for example, about 480 nm and an emission wavelength of, for example, about 520 nm. The fluorescence values of the reagent blank are subtracted from that of each of the samples and the percentage of free RNA is determined by dividing the fluorescence intensity of the intact sample (without addition of Triton X-100) by the fluorescence value of the disrupted sample (caused by the addition of Triton X-100).
Initial studies were performed to compare the delivery efficiency of nanoparticle compositions including various compounds according to Formula (I), (IA), (II), (IIa), (IIb), (IIc), (IId) or (IIe). The cationic lipid MC3 is a current standard in the art. Accordingly, the standard MC3 formulation including about 50 mol % MC3, about 10 mol % DSPC, about 38.5 mol % cholesterol, and about 1.5 mol % PEG-DMG was used as a basis for this study. Nanoparticle compositions including DSPC as a phospholipid, cholesterol as a structural lipid, PEG-DMG as a PEG lipid, an RNA, and a compound according to Formula (I), (IA), (II), (IIa), (IIb), (IIc), (IId) or (IIe) selected from Compounds 1-159, 168-170, and 173-175 were prepared according to or via methods similar to those described in Examples 1 and 2. The ratios of the lipids were 50:10:38.5:1.5 mol % for the lipid according to Formula (I), (IA), (II), (IIa), (IIb), (IIc), (IId) or (IIe):DSPC:cholesterol:PEG-DMG. The RNA used was an mRNA encoding G5 luciferase (Luc) or G5 hEPO. Tables 1A-1B summarize the content and characteristics of the formulations. […]

mice [3] = assay: Luc expression (total flux) after intramuscular administration; format: in vivo; settings: i.m., Luc, 6 h
mice [4] = assay: Cytokine induction (IL-6, IP-10) in mice after intravenous administration; format: in vivo; parameters: IL-6 / IP-10: unit not given here; settings: 0.5 mpk
Outline: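 Nanoparticle compositions given intravenously to mice at 0.5 mpk; serum cytokine concentrations measured at 6 hours, with MC3 formulation and PBS as comparators.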

mice [5] = assay: hEPO expression in mice after intravenous administration; format: in vivo
Experimental: Sample formulations of nanoparticle compositions including different lipids are generally first evaluated according to Luc expression in vivo. The activity of several such compositions was further evaluated using an mRNA encoding hEPO. Nanoparticle compositions including Compounds 6, 18, 25, 30, 108-112, 60, and 122, or MC3 were prepared according to Example 2.
The expression of hEPO and cytokine induction in mice intravenously administered a nanoparticle composition at a dose of 0.5 mpk were measured at 3, 6, and 24 hours. […] The expression of hEPO in mice intramuscularly administered a nanoparticle composition from Table 1B at a dose of 0.01 mpk were measured at 3, 6, and 24 hours. […] (see also FIG. 9.)
Table 12 compares the nanoparticle compositions including compounds according to Formula (I), (IA), (II), (IIa), (IIb), (IIc), (IId) or (IIe) to the compositions including MC3 on the basis of expression and flux levels. […] Thus, these lipids may be useful in nanoparticle composition therapeutics. […]

mice [6] = assay: Luc expression (bioluminescence, total flux) after intravenous administration to mice; format: in vivo; settings: Luc total flux (Table 3D)
Experimental: In order to monitor how effectively various nanoparticle compositions deliver therapeutic and/or prophylactics to targeted cells, different nanoparticle compositions including a particular therapeutic and/or prophylactic (for example, a modified or naturally occurring RNA such as an mRNA) are prepared and administered to rodent populations. Mice are intravenously, intramuscularly, intraarterially, or intratumorally administered a single dose including a nanoparticle composition with a formulation such as those provided in Example 3. In some instances, mice may be made to inhale doses. Dose sizes may range from 0.001 mg/kg to 10 mg/kg, where 10 mg/kg describes a dose including 10 mg of a therapeutic and/or prophylactic in a nanoparticle composition for each 1 kg of body mass of the mouse. A control composition including PBS may also be employed.
Upon administration of nanoparticle compositions to mice, dose delivery profiles, dose responses, and toxicity of particular formulations and doses thereof can be measured by enzyme-linked immunosorbent assays (ELISA), bioluminescent imaging, or other methods. For nanoparticle compositions including mRNA, time courses of protein expression can also be evaluated. Samples collected from the rodents for evaluation may include blood, sera, and tissue (for example, muscle tissue from the site of an intramuscular injection and internal tissue); sample collection may involve sacrifice of the animals.
The efficacy of the nanoparticle compositions presented in Table 1A was evaluated with a bioluminescence study. Formulations were administered intravenously to mice (n=6) at a dosage of 0.5 mg/kg (mpk) and bioluminescence measured at 3, 6, and 24 hour time points. The standard MC3 formulation and, in some instances, a control (e.g., a PBS control) were evaluated for comparison. […] In general, flux decreased as time progressed to less than 10% of the initial flux.
The total flux (measured by area under the curve, AUC) induced by administration of a formulation including a given lipid relative to that induced by administration of a formulation including MC3 was also measured for several lipids.
The tolerability and efficacy of nanoparticle compositions to non-human primates was also investigated using sample formulations including Compounds 18, 25, 26, and 48 and MC3 to determine if these compounds are differentiated in terms of protein expression. The formulations were prepared according to the standard MC3 formulation described above and included an hEPO mRNA. Table 30 includes details of the compositions tested, while Table 31 summarizes the relative expression of Luc and hEPO mRNA in mice and rats. Expression was measured 6 hours after administration.

[7] = nanoparticle composition lipid:DSPC:cholesterol:PEG-DMG 50:10:38.5:1.5 mol %, mRNA encoding Luc or hEPO (Table 1A)
[8] = nanoparticle composition 50:10:38.5:1.5 mol % (Table 1A)

Row | SMILES | PDI [1] | Size (nm) [1, 7] [nm] | i.m. Lipid/MC3 0.01 mpk, Luc, 6h (mice [3]) | further results
1 | CCCCCCCCCOC(=O)CCCCCCCN(CCCCCCCC(=O)OC(CCCCCCCC)CCCCCCCC)CCCOC(=O)NC [Compound 175, Heptadecan-9-yl 8-((3-((methylcarbamoyl)oxy)propyl)(8-(nonyloxy)-8-oxooctyl)amino)octanoate] | 0.2 | 65.4 | 0.1 | EE (%) [2, 8]: 93.23%
2 | CCCCCCCCCOC(=O)CCCCCCCN(CCCCCCCC(=O)OC(CCCCCCCC)CCCCCCCC)CCCNc1c(N(C)C)c(=O)c1=O [Compound 169, Heptadecan-9-yl 8-((3-((2-(dimethylamino)-3,4-dioxocyclobut-1-en-1-yl)amino)propyl)(8-(nonyloxy)-8-oxooctyl)amino)octanoate] | 0.18 | 75.4 | 3.3 | –
3 | CCCCC/C=C\C/C=C\CCCCCCCCN(CCO)CCCCCCCC(=O)OC(CCCCCCCC)CCCCCCCC [Compound 6, Heptadecan-9-yl 8-((2-hydroxyethyl)((9Z,12Z)-octadeca-9,12-dien-1-yl)amino)octanoate] | – | – | – | Size (nm) ([1]; hEPO mRNA, lipid:DSPC:Chol:PEG-DMG (50:10:38.5:1.5) (Table 10)): 70.5 nm; EE (%) ([2]; hEPO mRNA, (50:10:38.5:1.5) (Table 10)): 97.84%; IL-6 (mice [4]; 6 hours): 136.18; IP-10 (mice [4]; 6 hours): 316.01; Cytokine expression (pg/ml) IL-6 (6 h) (mice [4]; hEPO mRNA, 6 h): 10.15 pg/mL; Cytokine expression (pg/ml) IP-10 (6 h) (mice [4]; hEPO mRNA, 6 h): 116.66 pg/mL; hEPO concentrations compared with MC3 formulations at each time point (mice [5]; 0.5 mpk, 3, 6 and 24 hours): higher hEPO concentrations than MC3 formulations; hEPO expression (pg/ml) 3h (mice [5]; 0.5 mpk, 3 h): 2.31e+06 pg/mL; hEPO expression (pg/ml) 6 h (mice [5]; 0.5 mpk, 6 h): 3.17e+06 pg/mL; hEPO expression (pg/ml) 24 h (mice [5]; 0.5 mpk, 24 h): 1.11e+06 pg/mL
4 | CCCCCCCCCOC(=O)CCCCCCCN(CCCCCCCC(=O)OC(CCCCCCCC)CCCCCCCC)CCCN(C)S(C)(=O)=O [Compound 173, Heptadecan-9-yl 8-((3-(N-methylmethylsulfonamido)propyl)(8-(nonyloxy)-8-oxooctyl)amino)octanoate] | – | – | 0.6 | –
5 | CCCCCCCCCOC(=O)CCCCCCCN(CCCCCCCC(=O)OC(CCCCCCCC)CCCCCCCC)CCCN/C(=C/[N+](=O)[O-])NC [Compound 170, Heptadecan-9-yl (E)-8-((3-((1-(methylamino)-2-nitrovinyl)amino)propyl)(8-(nonyloxy)-8-oxooctyl)amino)octanoate] | 0.12 | 71.7 | 5.3 | –
6 | CCCCCCCCCOC(=O)CCCCCCCN(CCCCCCCC(=O)OC(CCCCCCCC)CCCCCCCC)CCCNS(C)(=O)=O [Compound 109, Heptadecan-9-yl 8-((3-(methylsulfonamido)propyl)(8-(nonyloxy)-8-oxooctyl)amino)octanoate] | – | – | 3.6 | –
7 | CCCCCCCCCOC(=O)CCCCCCCN(CCCCCCCC(=O)OC(CCCCCCCC)CCCCCCCC)CCCN1C(=O)CNC1=O [Compound 174, Heptadecan-9-yl 8-((3-(2,5-dioxoimidazolidin-1-yl)propyl)(8-(nonyloxy)-8-oxooctyl)amino)octanoate] | 0.12 | 61.4 | 0.2 | –

Now from value to compound, other results behind:

Row | PDI [1] | Size (nm) [1, 7] [nm] | SMILES | i.m. Lipid/MC3 0.01 mpk, Luc, 6h (mice [3]) | further results
8 | 0.14 | 79.3 | CCCCCCCCCOC(=O)CCCCCCCN(CCCCCCCC(=O)OC(CCCCCCCC)CCCCCCCC)CCCNC(=S)N(C)C [Compound 111, Heptadecan-9-yl 8-((3-(3,3-dimethylthioureido)propyl)(8-(nonyloxy)-8-oxooctyl)amino)octanoate] | 4.9 | –
9 | 0.096 | 69.6 | CCCCCCCCCOC(=O)CCCCCCCN(CCCCCCCC(=O)OC(CCCCCCCC)CCCCCCCC)C(C)CO (centres unmarked) [Compound 157, Heptadecan-9-yl 8-((1-hydroxypropan-2-yl)(8-(nonyloxy)-8-oxooctyl)amino)octanoate] | – | EE (%) [2, 8]: 96.43%; AUC (p/s*h) (mice [6]): 2.481E+011 p/s*h
